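1) Cells in 96-well plates. 2) Compound, 48 h, 5 concentrations. 3) Linear interpolation between surrounding doses. 4) Unreached endpoint = highest concentration. TGI denotes the concentration required for complete inhibition of growth.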
Columns and labels:
Test in all cases: growth of human tumour cells (NCI), 48 h
[1] = system: CCRF-CEM leukemia
[2] = system: SK-MEL-5 melanoma
[3] = system: SK-MEL-28 melanoma
[4] = system: T-47D breast
[5] = system: PC-3 prostate
[6] = system: HCT-15 colon
[7] = system: A549 NSCLC
[8] = system: SNB-75 CNS
[9] = system: K-562 leukemia
[10] = system: LOX IMVI melanoma
[11] = system: SNB-78 CNS
[12] = system: DLD-1 colon
[13] = system: HCC-2998 colon
[14] = system: RPMI-8226 leukemia
[15] = system: OVCAR-4 ovarian
[16] = system: MCF7 breast
[17] = system: MALME-3M melanoma
[18] = system: NCI-H226 lung
[19] = system: UACC-257 melanoma
[20] = system: SK-OV-3 ovarian
[21] = system: SK-MEL-2 melanoma
[22] = system: UACC-62 melanoma
[23] = system: NCI-H460 lung
[24] = system: SNB-19 CNS
[25] = system: SF-268 CNS
[26] = system: HOP-92 NSCLC
[27] = system: ACHN renal
[28] = system: NCI-H522 lung
[29] = system: SF-295 CNS
[30] = system: DMS 273 small cell lung
[31] = system: SF-539 CNS
[32] = system: MDA-N
[33] = system: HL-60(TB) leukemia
[34] = system: XF 498 CNS
[35] = system: HOP-18 NSCLC
[36] = system: DU-145 prostate
[37] = system: SR leukemia
[38] = system: OVCAR-8 ovarian
[39] = system: EKVX NSCLC
[40] = system: HOP-62 NSCLC
[41] = system: OVCAR-3 ovarian
[42] = system: LXFL 529 NSCLC
[43] = system: M19-MEL melanoma
[44] = system: HT29 colon
[45] = system: RXF 393 renal
[46] = system: COLO 205 colon
[47] = system: BT-549 breast
[48] = system: U251 CNS
[49] = system: SW-620 colon
[50] = system: KM12 colon
[51] = system: MOLT-4 leukemia
[52] = system: 786-0 renal
[53] = system: OVCAR-5 ovarian
[54] = system: UO-31 renal
[55] = system: HCT-116 colon
[56] = system: NCI-H23 lung
[57] = system: CAKI-1 renal
[58] = system: A498 renal
[59] = system: DMS 114 small cell lung
[60] = system: MDA-MB-231 breast
[61] = system: SN12C renal
[62] = system: TK-10 renal
[63] = system: KM20L2 colon
[64] = system: M14 melanoma
[65] = system: IGROV1 ovarian

`Cc1ccccc1Nc1nc2c(s1)C(=O)c1ccccc1C2=O` gave a TGI [1] of over 37.5 µM, a TGI [2] of 7.12 µM and a TGI [3] of 27.7 µM. The TGI [4] was 27.5 µM, the TGI [5] was 7.95 µM and the TGI [6] was 10.7 µM. The TGI [7] was 27.9 µM, the TGI [8] was 29.9 µM and the TGI [9] was over 36.2 µM. For the same compound, the TGI [10] was 5.27 µM, the TGI [11] was over 64.8 µM and the TGI [12] was 13.6 µM. For the same compound, the TGI [13] was 32.2 µM, the TGI [14] was 18 µM and the TGI [15] was 5.13 µM. The TGI [16] was 4.36 µM, the TGI [17] was 28.2 µM and the TGI [18] was 32.8 µM. It also gave a TGI [19] of 12.4 µM, a TGI [20] of 38 µM and a TGI [21] of 31.5 µM. The TGI [22] was 10.3 µM, the TGI [23] was 25.3 µM and the TGI [24] was 13.2 µM. The TGI [25] was 13 µM, the TGI [26] was 25.1 µM and the TGI [27] was 14.6 µM. The TGI [28] was 7.52 µM, the TGI [29] was 32.9 µM and the TGI [30] was 21.4 µM. It also gave a TGI [31] of 12.7 µM, a TGI [32] of 3.37 µM and a TGI [33] of over 100 µM. The TGI [34] was 29.3 µM, the TGI [35] was 24.9 µM and the TGI [36] was 20 µM. For the same compound, the TGI [37] was 11.4 µM, the TGI [38] was 9.05 µM and the TGI [39] was 21 µM. It also gave a TGI [40] of 30.2 µM, a TGI [41] of 5.31 µM and a TGI [42] of 14.8 µM. The TGI [43] was 3.79 µM, the TGI [44] was 40.7 µM and the TGI [45] was 19.3 µM. It also gave a TGI [46] of 34.7 µM, a TGI [47] of 6.57 µM and a TGI [48] of 8.83 µM. The TGI [49] was 6.65 µM, the TGI [50] was 23.4 µM and the TGI [51] was over 24.3 µM. It also gave a TGI [52] of 8.47 µM, a TGI [53] of 38 µM and a TGI [54] of 14.4 µM. For the same compound, the TGI [55] was 6.66 µM, the TGI [56] was 14.1 µM and the TGI [57] was 30.3 µM. For the same compound, the TGI [58] was 39.5 µM, the TGI [59] was 4.69 µM and the TGI [60] was 15 µM. It also gave a TGI [61] of 6.32 µM, a TGI [62] of 38.4 µM and a TGI [63] of over 65.4 µM. For the same compound, the TGI [64] was 12.1 µM and the TGI [65] was 26.4 µM.
